The record followed here is ChEMBL document CHEMBL1140773, “Discovery of amide and heteroaryl isosteres as carbamate replacements in a series of orally active gamma-secretase inhibitors” (Bioorg Med Chem Lett, 2008).

A short description of the data set: in vivo. The settings on record: rat, plasma, po, 10 mg/kg.
The AUC(0-t) is the area under the concentration-time curve up to a stated or last time point. The low end stands for less exposure, the high end for more exposure. In the case of `CC[C@@H]1CCC[C@H](C2(CC(=O)N3CCN4CCCC[C@H]4C3)CC2)N1S(=O)(=O)c1ccc(Cl)cc1` (racemic), the AUC(0-t) at 6 h was 419 ng·h/mL.
With `CC[C@@H]1CCC[C@H](C2(Cc3nc(CN(C)C(C)(C)CO)no3)CC2)N1S(=O)(=O)c1ccc(Cl)cc1` (racemic), the AUC(0-t) at 6 h is 973 ng·h/mL.
The value for `O=C(CC1([C@H]2CCC[C@@H](C3CC3)N2S(=O)(=O)c2ccc(Cl)cc2)CC1)N1CCN2CCCC[C@H]2C1` (racemic) was 673 ng·h/mL; that for `CC(C)(CO)N1CCN(C(=O)CC2([C@H]3CCC[C@@H](C4CC4)N3S(=O)(=O)c3ccc(Cl)cc3)CC2)CC1` (racemic) was 1350 ng·h/mL; that for `CC[C@@H]1CCC[C@H](C2(Cc3nc(CN4CCCC4)no3)CC2)N1S(=O)(=O)c1ccc(Cl)cc1` (racemic) was 26 ng·h/mL.
The value for `CC[C@@H]1CCC[C@H](C2(CC(=O)N3CCC(N4CCCCC4)CC3)CC2)N1S(=O)(=O)c1ccc(Cl)cc1` (racemic) was 93 ng·h/mL; that for `O=C(CC1([C@H]2CCC[C@@H](C3CC3)N2S(=O)(=O)c2ccc(Cl)cc2)CC1)N1CC2CCC(C1)N2CCO` (mixture of isomers) was 5810 ng·h/mL; that for `CC[C@@H]1CCC[C@H](C2(CC(=O)N3CC4CCC(C3)N4C)CC2)N1S(=O)(=O)c1ccc(Cl)cc1` (mixture of isomers) was 2650 ng·h/mL.
`CN(Cc1noc(CC2([C@H]3CCC[C@@H](C4CC4)N3S(=O)(=O)c3ccc(Cl)cc3)CC2)n1)C(C)(C)CO` (racemic) had an AUC(0-t) at 6 h of 143 ng·h/mL.
Turning to `CC[C@@H]1CCC[C@H](C2(CC(=O)N3CCN(C(C)(C)CO)CC3)CC2)N1S(=O)(=O)c1ccc(Cl)cc1` (racemic), the AUC(0-t) at 6 h is 1620 ng·h/mL.
Regarding `CC[C@@H]1CCC[C@H](C2(CC(=O)N3CC4CCC(C3)N4CCO)CC2)N1S(=O)(=O)c1ccc(Cl)cc1` (mixture of isomers), the AUC(0-t) at 6 h was 3220 ng·h/mL.
